{"source": "patent US20250051333A1", "about": "“POLYMORPH OF KRAS INHIBITOR, PREPARATION METHOD THEREFOR, AND USE THEREOF” (GENFLEET THERAPEUTICS (SHANGHAI) INC., priority 2021, published 2025)", "format_in_all_cases": "physicochemical", "key": {"[1]": {"assay": "Humidity induction test: standing at various humidities at room temperature", "details": "for Polymorphic transition or not: room temperature, open", "excerpt": "Some of the crystalline forms prepared in the above examples were investigated in a humidity induction test at room temperature."}, "[2]": {"assay": "Hygroscopicity by DVS testing", "protocol": "The dynamic vapor sorption (DVS) analysis may be conducted on the DVS Intrinsic system from Surface Measurement Systems (SMS). Temperature: 25° C.: sample amount: 20-40 mg; protective gas and flow rate: N2, 200 mL/min; dm/dt: 0.002%/min; minimum dm/dt equilibration time: 10 min, maximum equilibration time. 180 min; RH range: room humidity to 95% RH to 0% RH to 95% RH: 0% RH to 95% RH to 0% RH; RH gradient: 10% RH (0% RH to 90% RH & 90% RH to 0% RH): 5% RH (90% RH to 95% RH & 95% RH to 90% RH)."}, "[3]": {"assay": "Solid stability, 60° C. sealed 24 hours and 40° C./75% RH open one week (XRPD, HPLC, KF)", "details": "for Purity (%): HPLC; for Water content (%): KF test; for Polymorphic transition or not: XRPD; for Relative to the initial (%): purity", "excerpt": "Proton nuclear magnetic resonance may be conducted on the Bruker 400M nuclear magnetic resonance spectrometer, with deuterated chloroform, deuterated methanol, or dimethyl sulfoxide-d6 as the solvent. Water titration (KF test) may be conducted on the Metrohm 870 KF Titrinoplus from Sigma-Aldrich, with ultrapure water for calibration and Hydranal® R-Composite 5 as the titration reagent. HPLC-grade methanol was used to dissolve the solid sample.\nHigh-performance liquid chromatography (HPLC) may be conducted on the Agilent 1260 high-performance liquid chromatograph system (Waters Xbridge C18, 150×4.6 mm, 5 μm column).\nIn order to further evaluate the solid stability of the crystalline forms of the present invention, appropriate amounts of samples were for at 60° C. in a sealed condition for 24 hours and at 40° C./75% RH open to the atmosphere for a week."}, "[4]": {"assay": "Solid stability, 60° C./75% RH open, physical stability by XRPD", "details": "for Crystalline form: XRPD", "protocol": "Appropriate amounts of samples were weighed and let stand at 60° C./75% RH open to the atmosphere for 7 days, 14 days, and 1 month. Samples of different standing times were evaluated for the physical stability of the crystalline forms by XRPD."}, "[5]": {"assay": "Variable-temperature XRPD / heating test of crystalline forms", "details": "heating to 150° C. and cooling to 30° C. in a N2 atmosphere", "protocol": "The X-ray powder diffraction (XRPD) analysis may be conducted on the X'Pert3 X-ray powder diffraction analyzer with the following parameters: Cu, kα; Kα1 (Å): 1.540598: Kα2 (Å): 1.544426; Kα2/Kα1 intensity ratio: 0.50; voltage: 45 kV; current: 40 mA; divergent slit: ⅛°; scan mode: continuous: scanning range: 3° to 40°: scanning step: 0.0263°; time of step: 46.665 s: scanning time: 5 min 03 s. Alternatively, the analysis may be conducted on the PANalytical Empyrean X-ray powder diffraction analyzer with the following parameters: Cu, kα; Kα1 (Å): 1.540598: Kα2 (Å); 1.544426: Kα2/Kα1 intensity ratio: 0.50: voltage: 45 kV; current; 40 mA: divergent slit: automatic; scan mode: continuous; scanning range: 3° to 40°; scanning step: 0.0167°; time of step: 17.780 s/33.020 s; scanning time: 5 min 32 s/10 min 13 s."}, "[6]": {"details": "60° C. sealed 24 hours and 40° C./75% RH open one week"}}, "data": [{"smiles": "C=CC(=O)N1CCN2c3c(c(=O)n(-c4c(C)ccnc4C(C)C)c4nc(-c5c(O)cccc5F)c(Cl)cc34)N(C)C(=O)[C@H]2C1", "note": "[Crystalline form 3, (4aR,8R)-3-acryloyl-11-chloro-10-(2-fluoro-6-hydroxyphenyl)-8-(2-isopropyl-4-methylpyridin-3-yl)-6-methyl-2,3,4,4a,6,8-hexahydro-1H-pyrazino[1′,2′:4,5]pyrazino[2,3-c][1,8]naphthyridine-5,7-dione]", "values": [{"measurement": "Polymorphic transition or not", "setting": "[1]; 22.5% RH (saturated potassium acetate), 10 days", "value": "No"}, {"measurement": "Polymorphic transition or not", "setting": "[1]; 22.5% RH (saturated potassium acetate), 23 days", "value": "No"}, {"measurement": "Polymorphic transition or not", "setting": "[1]; 22.5% RH (saturated potassium acetate), 30 days", "value": "No"}, {"measurement": "Polymorphic transition or not", "setting": "[1]; 43.2% RH (saturated potassium carbonate), 10 days", "value": "No"}, {"measurement": "Polymorphic transition or not", "setting": "[1]; 43.2% RH (saturated potassium carbonate), 23 days", "value": "No"}, {"measurement": "Polymorphic transition or not", "setting": "[1]; 43.2% RH (saturated potassium carbonate), 30 days", "value": "No"}, {"measurement": "Polymorphic transition or not", "setting": "[1]; 60% RH (stability chamber), 10 days", "value": "No"}, {"measurement": "Polymorphic transition or not", "setting": "[1]; 60% RH (stability chamber), 23 days", "value": "No"}, {"measurement": "Polymorphic transition or not", "setting": "[1]; 60% RH (stability chamber), 30 days", "value": "No"}, {"measurement": "Polymorphic transition or not", "setting": "[1]; 84.2% RH (saturated potassium chloride), 10 days", "value": "No"}, {"measurement": "Polymorphic transition or not", "setting": "[1]; 84.2% RH (saturated potassium chloride), 23 days", "value": "No"}, {"measurement": "Polymorphic transition or not", "setting": "[1]; 84.2% RH (saturated potassium chloride), 30 days", "value": "No"}, {"measurement": "Polymorphic transition", "setting": "[1]; 30 days open to the atmosphere at room temperature at 22.5% RH to 84.2% RH", "value": "neither crystalline form 6 (Example 12) nor crystalline form 3 (Example 3) exhibited polymorphic transition"}, {"measurement": "Weight gain (DVS)", "setting": "[2]; 25° C./80% RH", "value": "less than 0.9%"}, {"measurement": "Hygroscopicity (in words)", "setting": "[2]; DVS at 25° C., 0% RH to 95% RH", "value": "almost no hygroscopicity"}, {"measurement": "Crystalline form after DVS testing (XRPD)", "setting": "[2]; after DVS testing", "value": "did not change"}, {"measurement": "Purity (%)", "setting": "[3]; 40° C./75% RH/open, 1 week", "value": 99.27, "unit": "%"}, {"measurement": "Water content (%)", "setting": "[3]; 40° C./75% RH/open, 1 week", "value": 1.3, "unit": "%"}, {"measurement": "Polymorphic transition or not", "setting": "[3]; 40° C./75% RH/open, 1 week", "value": "No"}, {"measurement": "HPLC purity change", "setting": "[3]; [6]", "value": "no significant decrease in HPLC purity"}, {"measurement": "Polymorphic transition", "setting": "[3]; [6]", "value": "no polymorphic transition"}, {"measurement": "Purity (%)", "setting": "[3]; 60° C./sealed, 1 day", "value": 99.27, "unit": "%"}, {"measurement": "Water content (%)", "setting": "[3]; 60° C./sealed, 1 day", "value": 1.1, "unit": "%"}, {"measurement": "Polymorphic transition or not", "setting": "[3]; 60° C./sealed, 1 day", "value": "No"}, {"measurement": "Purity (%)", "setting": "[3]; Initial", "value": 99.33, "unit": "%"}, {"measurement": "Water content (%)", "setting": "[3]; Initial", "value": 0.9, "unit": "%"}, {"measurement": "Relative to the initial (%)", "setting": "[3]; 40° C./75% RH/open, 1 week", "value": 99.94, "unit": "%"}, {"measurement": "Relative to the initial (%)", "setting": "[3]; 60° C./sealed, 1 day", "value": 99.94, "unit": "%"}, {"measurement": "Crystalline form", "setting": "[4]; 60° C./75% RH (open), 1 month", "value": "Crystalline form 3"}, {"measurement": "Crystalline form", "setting": "[4]; 60° C./75% RH (open), 7 days", "value": "Crystalline form 3"}, {"measurement": "Crystalline form", "setting": "[4]; 60° C./75% RH (open), 14 days", "value": "Crystalline form 3"}, {"measurement": "Polymorphic transition", "setting": "[4]; 60° C./75% RH open, up to 1 month", "value": "no transition"}, {"measurement": "Crystalline form", "setting": "[4]; Initial, 0 days", "value": "Crystalline form 3"}, {"measurement": "Crystalline form change on heating (variable-temperature XRPD)", "setting": "[5]", "value": "no crystalline form changes were observed"}]}]}
